This note sets out measurements from US20230257393A1, “MACROMOLECULE-SUPPORTED THIENOAZEPINE COMPOUNDS, AND USES THEREOF” (BOLT BIOTHERAPEUTICS, INC., priority 2020, published 2023).

In one test the target is T1, human TLR8 (Homo sapiens, UniProt Q9NR97).
T1 construct: host or cells: HEK293 reporter cells
T1 sequence (Q9NR97 27-1041): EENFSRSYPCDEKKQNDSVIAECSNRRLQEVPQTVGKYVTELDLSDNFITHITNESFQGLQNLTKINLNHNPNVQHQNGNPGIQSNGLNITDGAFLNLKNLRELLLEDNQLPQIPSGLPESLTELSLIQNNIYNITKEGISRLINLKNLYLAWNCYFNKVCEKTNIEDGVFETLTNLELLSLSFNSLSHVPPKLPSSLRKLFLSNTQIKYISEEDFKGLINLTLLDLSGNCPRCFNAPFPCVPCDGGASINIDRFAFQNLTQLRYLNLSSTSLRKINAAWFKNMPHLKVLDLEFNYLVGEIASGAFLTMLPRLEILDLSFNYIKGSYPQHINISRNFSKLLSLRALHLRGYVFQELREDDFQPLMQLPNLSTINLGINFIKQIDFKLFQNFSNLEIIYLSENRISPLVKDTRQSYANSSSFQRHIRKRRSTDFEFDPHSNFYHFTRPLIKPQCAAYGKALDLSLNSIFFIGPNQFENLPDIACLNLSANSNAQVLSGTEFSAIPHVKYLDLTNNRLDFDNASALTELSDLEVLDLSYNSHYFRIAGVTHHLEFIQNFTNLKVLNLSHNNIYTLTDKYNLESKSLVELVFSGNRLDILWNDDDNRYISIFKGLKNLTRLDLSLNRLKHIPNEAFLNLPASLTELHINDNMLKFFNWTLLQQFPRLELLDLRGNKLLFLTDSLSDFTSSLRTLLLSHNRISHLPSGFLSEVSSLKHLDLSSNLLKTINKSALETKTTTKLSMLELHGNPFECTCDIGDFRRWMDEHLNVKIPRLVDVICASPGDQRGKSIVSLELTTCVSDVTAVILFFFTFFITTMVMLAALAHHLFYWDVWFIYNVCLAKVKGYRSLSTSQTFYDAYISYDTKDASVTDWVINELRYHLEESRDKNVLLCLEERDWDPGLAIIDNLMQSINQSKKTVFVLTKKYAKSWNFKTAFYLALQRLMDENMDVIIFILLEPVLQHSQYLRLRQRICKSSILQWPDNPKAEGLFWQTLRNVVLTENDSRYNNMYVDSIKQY
The test can be described thus: HEK Reporter Assay, HEK293 NFKB reporter cells expressing human TLR8. The following applies: read-out: HEK293 hTLR8 EC50. In kind it is cell-based. How it is done: (§1) Each compound was synthesized, purified, and characterized by mass spectrometry and shown to have the mass indicated. Additional experimental procedures are found in the Examples. Activity against HEK293 NFKB reporter cells expressing human TLR7 or human TLR8 was measured according to Example 202.
(§2) HEK293 reporter cells expressing human TLR7 or human TLR8 were purchased from Invivogen and vendor protocols were followed for cellular propagation and experimentation. Briefly, cells were grown to 80-85% confluence at 5% CO2 in DMEM supplemented with 10% FBS, Zeocin, and Blasticidin. Cells were then seeded in 96-well flat plates at 4×10^4 cells/well with substrate containing HEK detection medium and immunostimulatory molecules. Activity was measured using a plate reader at 620-655 nm wavelength.

For a further test, the target named is T2, human TLR7 (Homo sapiens, UniProt Q9NYK1).
T2 construct: host or cells: HEK293 reporter cells
T2 sequence (Q9NYK1 27-1049): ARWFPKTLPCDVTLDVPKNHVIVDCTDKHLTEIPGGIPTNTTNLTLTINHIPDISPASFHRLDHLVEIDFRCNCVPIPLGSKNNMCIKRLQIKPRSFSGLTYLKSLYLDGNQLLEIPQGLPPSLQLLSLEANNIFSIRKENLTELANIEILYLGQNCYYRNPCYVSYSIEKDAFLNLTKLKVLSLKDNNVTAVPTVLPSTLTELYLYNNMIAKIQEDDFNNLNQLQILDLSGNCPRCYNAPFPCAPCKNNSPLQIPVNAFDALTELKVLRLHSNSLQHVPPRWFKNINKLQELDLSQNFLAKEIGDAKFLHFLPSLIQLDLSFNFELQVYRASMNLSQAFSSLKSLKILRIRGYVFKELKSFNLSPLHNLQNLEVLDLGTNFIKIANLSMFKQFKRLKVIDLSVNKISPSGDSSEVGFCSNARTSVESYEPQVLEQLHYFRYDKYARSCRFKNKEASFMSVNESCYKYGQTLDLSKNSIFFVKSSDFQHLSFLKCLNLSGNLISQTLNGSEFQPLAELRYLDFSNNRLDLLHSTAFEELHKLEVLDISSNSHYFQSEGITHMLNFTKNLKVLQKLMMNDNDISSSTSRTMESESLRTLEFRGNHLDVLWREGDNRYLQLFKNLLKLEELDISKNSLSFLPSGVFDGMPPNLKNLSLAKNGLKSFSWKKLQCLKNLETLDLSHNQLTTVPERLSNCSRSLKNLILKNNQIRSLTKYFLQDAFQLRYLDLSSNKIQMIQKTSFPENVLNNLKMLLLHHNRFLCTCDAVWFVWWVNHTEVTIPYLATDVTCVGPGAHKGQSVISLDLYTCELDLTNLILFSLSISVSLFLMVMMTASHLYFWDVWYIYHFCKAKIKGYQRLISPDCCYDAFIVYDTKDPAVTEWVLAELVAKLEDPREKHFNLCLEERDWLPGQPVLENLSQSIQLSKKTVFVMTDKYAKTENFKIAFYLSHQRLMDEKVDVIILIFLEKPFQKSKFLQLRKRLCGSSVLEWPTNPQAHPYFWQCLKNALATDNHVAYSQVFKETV
Put plainly: HEK Reporter Assay, HEK293 NFKB reporter cells expressing human TLR7. The following applies: read-out: HEK293 hTLR7 EC50. In kind it is cell-based. How it is done:
as §1, §2
(A reporter such as luciferase makes a cellular process visible.)

Where two headings read alike, the source gives them in different places. Bounds are passed on as bounds.

Regarding `CCCN(CCC)C(=O)C1=Cc2sc(C(=O)NCC)cc2N=C(N)C1` [TAZ-24, 5-amino-N2-ethyl-N7,N7-dipropyl-6H-thieno[3,2-b]azepine-2,7-dicarboxamide], the EC50 at human TLR8 (Table 1a) and at human TLR7 (Table 1a) was greater than 9 µM each time.
Turning to `CCCN(OCC)C(=O)C1=Cc2sc(COCCCN)cc2N=C(N)C1` [TAZ-73], the values for the EC50 at human TLR8 (Table 1b) and at human TLR7 (Table 1b) were 2.98 µM and greater than 9 µM, respectively.
As for `CCCN(CCC)C(=O)C1=Cc2sc(-c3ccccc3)cc2N=C(N)C1` [TAZ-18, 5-amino-2-phenyl-N,N-dipropyl-6H-thieno[3,2-b]azepine-7-carboxamide], the EC50 on human TLR8 (Table 1a) and at human TLR7 (Table 1a) was greater than 9 µM throughout.
As to `CCCN(OCC)C(=O)C1=Cc2sc(CN3C[C@H]4C[C@@H]3CN4)cc2N=C(N)C1` [TAZ-235], the EC50 turned out to be 3.05 µM at human TLR8 (Table 1c) and 4.57 µM on human TLR7 (Table 1c).
Take `CCCN(OCC)C(=O)C1=Cc2sc(CN3CCC(c4ccc(C(=O)OC)cc4)CC3)cc2N=C(N)C1` [TAZ-229]: the EC50 on human TLR8 (Table 1c) and at human TLR7 (Table 1c) was no less than 9 µM in each case.
For `CCCN(Cc1ccc(CNC(=O)OC(C)(C)C)cc1)C(=O)C1=Cc2sccc2N=C(N)C1` [TAZ-29, tert-butyl (4-((5-amino-N-propyl-6H-thieno[3,2-b]azepine-7-carboxamido)methyl)benzyl)carbamate], the EC50 at human TLR8 (Table 1a) and on human TLR7 (Table 1a) was greater than 9 µM throughout.
Consider `CCCN(OCC)C(=O)C1=Cc2sc(C#CC3CNC3)cc2N=C(N)C1` [TAZ-193], for which the EC50 is 1.52 µM at human TLR8 (Table 1c) and 3.36 µM at human TLR7 (Table 1c).
Turning to `CCCN(OCC)C(=O)C1=Cc2sc(CN3CCN(c4ccc(C(=O)OC(C)(C)C)cc4)CC3)cc2N=C(N)C1` [TAZ-205], the EC50 at human TLR8 (Table 1c) and at human TLR7 (Table 1c) was no less than 9 µM each time.
With `CCCN(CCC)C(=O)C1=Cc2sc(C(=O)Nc3ccccc3)cc2N=C(N)C1` [TAZ-23, 5-amino-N2-phenyl-N7,N7-dipropyl-6H-thieno [3,2-b]azepine-2,7-dicarboxamide], the EC50 at human TLR8 (Table 1a) and on human TLR7 (Table 1a) was greater than 9 µM in each case.

Broadly, the EC50 is the concentration giving half of the maximal effect.
